Strand notation (5' to 3'): a small letter for the sugar, then the base; units joined by * are phosphorothioate-linked, units joined directly phosphodiester-linked; [ ] holds rarer units or linkages, { } end groups; capitals alone tell only the bases. e = 2'-O-(2-methoxyethyl) (MOE); [5mC] = 5-methylcytosine; d = 2'-deoxy (DNA)

One series concerns Mouse B7-2 mRNA. The series can be described thus: Mouse B7-2 mRNA expression, screened as in Example 4. The format is cell-based. Further details: % mRNA INHIBITION: concentration or dose not given beside the values. The following applies: for % mRNA INHIBITION: screened as in Example 4; for % mRNA EXPRESSION: screened as in Example 4, basal = 100.0%. As to the method: For ribonuclease protection assays, cells were harvested 18 hours after completion of oligonucleotide treatment using a Totally RNA™ kit (Ambion, Austin, Tex.). The probes for the assay were generated from plasmids pcB7-2 (linearized by digestion with Bgl II) and pTRI-b-actin (Ambion Inc., Austin, Tex.). In vitro transcription of the linearized plasmid from the SP6 promoter was performed in the presence of α-^32P-UTP (800 Ci/mmole) yielding an antisense RNA complementary to the 3′ end of B7-2 (position 1044-1391). The probe was gel-purified after treatment with DNase I to remove DNA template. Ribonuclease protection assays were carried out using an RPA II™ kit (Ambion) according to the manufacturer's directions. Total RNA (5 μg) was hybridized overnight, at 42° C., with 10^5 cpm of the B7-2 probe or a control beta-actin probe. The hybridization reaction was then treated, at 37° C. for 30 minutes, with 0.4 units of RNase A and 2 units of RNase T1. Protected RNA was precipitated, resuspended in 10 μL of gel loading buffer and electrophoresed on a 6% acrylamide gel with 50% w/v urea at 20 W. The gel was then exposed and the lanes quantitated using a PhosphorImager (Molecular Dynamics, Sunnyvale, Calif.) essentially according to the manufacturer's instructions.
Oligonucleotides were screened as described in Example 4.

A further series deals with Mouse B7-1 mRNA. Nature of the series: Mouse B7-1 mRNA expression, screened as in Example 4. The format is cell-based. Further details: % mRNA INHIBITION: concentration or dose not given beside the values. The following applies: Table 10.

Regarding “18084 (antisense eG*e[5mC]*eT*eG*e[5mC]*d[5mC]*dT*dA*d[5mC]*dA*dG*dG*dA*dG*d[5mC]*e[5mC]*eA*e[5mC]*eT*e[5mC]) [compound 18084]”, in the series on Mouse B7-2 mRNA, the “% mRNA INHIBITION” value was 63.6% and the “% mRNA EXPRESSION” value amounted to 36.4%.

In the case of “18085 (antisense eT*e[5mC]*eA*eA*eG*dT*d[5mC]*d[5mC]*dG*dT*dG*d[5mC]*dT*dG*d[5mC]*e[5mC]*eT*eA*e[5mC]*eA) [compound 18085]”, in the series on Mouse B7-2 mRNA, the “% mRNA INHIBITION” value is on record as 65.0% and the “% mRNA EXPRESSION” value is on record as 35.0%. In the same order, the values of “18086 (antisense eG*eT*e[5mC]*eT*eA*d[5mC]*dA*dG*dG*dA*dG*dT*d[5mC]*dT*dG*eG*eT*eT*eG*eT) [compound 18086]” are 59.9% and 40.1%. In the same order, the values of “18087 (antisense eA*eG*e[5mC]*eT*eT*dG*d[5mC]*dG*dT*d[5mC]*dT*d[5mC]*d[5mC]*dA*d[5mC]*eG*eG*eA*eA*eA) [compound 18087]” are 57.9% and 42.1%. The matching figures for “18088 (antisense eT*e[5mC]*eA*e[5mC]*eA*d[5mC]*dT*dA*dT*d[5mC]*dA*dA*dG*dT*dT*eT*e[5mC]*eT*e[5mC]*eT) [compound 18088]”: 47.7% and 52.3%. As for “18090 (antisense eG*eT*eG*eA*eA*dG*dT*d[5mC]*dG*dT*dA*dG*dA*dG*dT*e[5mC]*e[5mC]*eA*eG*eT) [compound 18090]”, in the series on Mouse B7-2 mRNA, the “% mRNA INHIBITION” value came to 63.4% and the “% mRNA EXPRESSION” value was found to be 36.6%. The matching figures for “18091 (antisense eG*eT*eG*eA*e[5mC]*d[5mC]*dT*dT*dG*d[5mC]*dT*dT*dA*dG*dA*e[5mC]*eG*eT*eG*e[5mC]) [compound 18091]”: 62.9% and 37.1%. For “18092 (antisense e[5mC]*eA*eT*e[5mC]*eT*dT*d[5mC]*dT*dT*dA*dG*dG*dT*dT*dT*e[5mC]*eG*eG*eG*eT) [compound 18092]”, in the series with Mouse B7-2 mRNA, the “% mRNA INHIBITION” value is given as 41.1% and the “% mRNA EXPRESSION” value is recorded as 58.9%. Take “18093 (antisense eG*eG*e[5mC]*eT*eG*dT*dT*dG*dG*dA*dG*dA*dT*dA*d[5mC]*eT*eG*eA*eA*e[5mC]) [compound 18093]”: in the series on Mouse B7-2 mRNA, the “% mRNA INHIBITION” value was 67.3% and the “% mRNA EXPRESSION” value was determined as 32.7%. In the same order, the values of “18094 (antisense eG*eG*eG*eA*eA*dT*dG*dA*dA*dA*dG*dA*dG*dA*dG*eA*eG*eG*e[5mC]*eT) [compound 18094]” are 36.2% and 63.8%. The matching figures for “18095 (antisense eA*e[5mC]*eA*eT*eA*d[5mC]*dA*dA*dT*dG*dA*dT*dG*dA*dG*e[5mC]*eA*eG*e[5mC]*eA) [compound 18095]”: 65.7% and 34.3%.

Consider “18096 (antisense eG*eT*e[5mC]*eT*e[5mC]*dT*d[5mC]*dT*dG*dT*d[5mC]*dA*dG*d[5mC]*dG*eT*eT*eA*e[5mC]*eT) [compound 18096]”, for which, in the series with Mouse B7-2 mRNA, the “% mRNA INHIBITION” value stood at 67.7% and the “% mRNA EXPRESSION” value is given as 32.3%. In the same order, the values of “18098 (antisense eG*eG*eA*eT*eT*dG*d[5mC]*d[5mC]*dA*dA*dG*d[5mC]*d[5mC]*d[5mC]*dA*eT*eG*eG*eT*eG) [compound 18098]” are 67.8% and 32.2%. For “18099 (antisense eG*e[5mC]*eA*eA*eT*dT*dT*dG*dG*dG*dG*dT*dT*d[5mC]*dA*eA*eG*eT*eT*e[5mC]) [compound 18099]”, in the series with Mouse B7-2 mRNA, the “% mRNA INHIBITION” value was found to be 33.2% and the “% mRNA EXPRESSION” value came out at 66.8%. Regarding “18100 (antisense e[5mC]*eA*eA*eT*e[5mC]*dA*dG*d[5mC]*dT*dG*dA*dG*dA*dA*d[5mC]*eA*eT*eT*eT*eT) [compound 18100]”, in the series with Mouse B7-2 mRNA, the “% mRNA INHIBITION” value was 32.8% and the “% mRNA EXPRESSION” value amounted to 67.2%. As to “18101 (antisense eT*eT*eT*eT*eG*dT*dA*dT*dA*dA*dA*dA*d[5mC]*dA*dA*eT*e[5mC]*eA*eT*eA) [compound 18101]”, in the series on Mouse B7-2 mRNA, the “% mRNA INHIBITION” value is on record as 11.1% and the “% mRNA EXPRESSION” value was 88.9%. In the same order, the values of “18102 (antisense e[5mC]*e[5mC]*eT*eT*e[5mC]*dA*d[5mC]*dT*d[5mC]*dT*dG*d[5mC]*dA*dT*dT*eT*eG*eG*eT*eT) [compound 18102]” are 66.2% and 33.8%.

Turning to “18103 (antisense eT*eG*e[5mC]*eA*eT*dG*dT*dT*dA*dT*d[5mC]*dA*d[5mC]*d[5mC]*dA*eT*eA*e[5mC]*eT*e[5mC]) [compound 18103]”, in the series on Mouse B7-2 mRNA, the “% mRNA INHIBITION” value is 69.8% and the “% mRNA EXPRESSION” value was found to be 30.2%.

Consider “18104 (antisense eA*eG*eA*eG*eA*dA*dA*d[5mC]*dT*dA*dG*dT*dA*dA*dG*eA*eG*eT*e[5mC]*eT) [compound 18104]”, for which, in the series on Mouse B7-1 mRNA, the “% mRNA EXPRESSION” value is on record as 60.0% and the “% mRNA INHIBITION” value amounted to 40.0%. In the same order, the values of “18105 (antisense eT*eG*eG*e[5mC]*eA*dT*d[5mC]*d[5mC]*dA*d[5mC]*d[5mC]*d[5mC]*dG*dG*d[5mC]*eA*eG*eA*eT*eG) [compound 18105]” are 32.0% and 68.0%. In the same order, the values of “18106 (antisense TCGAGAAACAGAGATGTAGA; listed as DNA, chemistry not fully specified) [compound 18106]” are 51.0% and 49.0%. On to “18107 (antisense eT*eG*eG*eA*eG*d[5mC]*dT*dT*dA*dG*dG*d[5mC]*dA*d[5mC]*d[5mC]*eT*e[5mC]*e[5mC]*eT*eA) [compound 18107]”, for which, in the series on Mouse B7-1 mRNA, the “% mRNA EXPRESSION” value amounted to 58.0% and the “% mRNA INHIBITION” value amounted to 42.0%. The matching figures for “18108 (antisense eT*eG*eG*eG*eG*dA*dA*dA*dG*d[5mC]*d[5mC]*dA*dG*dG*dA*eA*eT*e[5mC]*eT*eA) [compound 18108]”: 82.0% and 18.0%. In the same order, the values of “18109 (antisense e[5mC]*eA*eG*e[5mC]*eA*d[5mC]*dA*dA*dA*dG*dA*dG*dA*dA*dG*eA*eA*eT*eG*eA) [compound 18109]” are 45.5% and 54.5%. On to “18111 (antisense eA*eA*eG*eT*e[5mC]*d[5mC]*dG*dG*dT*dT*d[5mC]*dT*dT*dA*dT*eA*e[5mC]*eT*e[5mC]*eG) [compound 18111]”, for which, in the series with Mouse B7-1 mRNA, the “% mRNA EXPRESSION” value is given as 38.0% and the “% mRNA INHIBITION” value amounted to 62.0%. With “18112 (antisense eG*e[5mC]*eA*eG*eG*dT*dA*dA*dT*d[5mC]*d[5mC]*dT*dT*dT*dT*eA*eG*eT*eG*eT) [compound 18112]”, in the series with Mouse B7-1 mRNA, the “% mRNA EXPRESSION” value is reported as 42.0% and the “% mRNA INHIBITION” value came to 58.0%. For “18114 (antisense e[5mC]*eG*eA*eA*eT*d[5mC]*d[5mC]*dT*dG*d[5mC]*d[5mC]*d[5mC]*d[5mC]*dA*dA*eA*eG*eA*eG*e[5mC]) [compound 18114]”, in the series on Mouse B7-1 mRNA, the “% mRNA EXPRESSION” value is 25.6% and the “% mRNA INHIBITION” value was found to be 74.4%.

In the case of “18115 (antisense eA*e[5mC]*eT*eG*e[5mC]*dG*d[5mC]*d[5mC]*dG*dA*dA*dT*d[5mC]*d[5mC]*dT*eG*e[5mC]*e[5mC]*e[5mC]*e[5mC]) [compound 18115]”, in the series with Mouse B7-1 mRNA, the “% mRNA EXPRESSION” value was 33.5% and the “% mRNA INHIBITION” value stood at 66.5%. For “18116 (antisense eT*eT*eG*eA*eT*dG*dA*dT*dG*dA*d[5mC]*dA*dA*d[5mC]*dG*eA*eT*eG*eA*e[5mC]) [compound 18116]”, in the series with Mouse B7-1 mRNA, the “% mRNA EXPRESSION” value came to 65.6% and the “% mRNA INHIBITION” value is 34.4%. Take “18117 (antisense e[5mC]*eT*eG*eT*eT*dG*dT*dT*dT*dG*dT*dT*dT*d[5mC]*dT*e[5mC]*eT*eG*e[5mC]*eT) [compound 18117]”: in the series with Mouse B7-1 mRNA, the “% mRNA EXPRESSION” value amounted to 46.7% and the “% mRNA INHIBITION” value is 53.3%. In the same order, the values of “18118 (antisense eT*eG*eT*eT*e[5mC]*dA*dG*d[5mC]*dT*dA*dA*dT*dG*d[5mC]*dT*eT*e[5mC]*eT*eT*e[5mC]) [compound 18118]” are 31.7% and 68.3%.

For “18120 (antisense eT*e[5mC]*e[5mC]*eA*e[5mC]*dT*dT*d[5mC]*dA*dG*dT*d[5mC]*dA*dT*d[5mC]*eA*eA*eG*e[5mC]*eA) [compound 18120]”, in the series on Mouse B7-1 mRNA, the “% mRNA EXPRESSION” value was 26.7% and the “% mRNA INHIBITION” value stood at 73.3%. Consider “18121 (antisense eT*eG*e[5mC]*eT*e[5mC]*dA*dA*dT*dA*d[5mC]*dT*d[5mC]*dT*d[5mC]*dT*eT*eT*eT*eT*eA) [compound 18121]”, for which the “% mRNA EXPRESSION” value with Mouse B7-1 mRNA is listed as 114.0%. “18122 (antisense eA*eG*eG*e[5mC]*e[5mC]*d[5mC]*dA*dG*d[5mC]*dA*dA*dA*d[5mC]*dT*dT*eG*e[5mC]*e[5mC]*e[5mC]*eG) [compound 18122]”: in the series on Mouse B7-1 mRNA, the “% mRNA EXPRESSION” value was 42.0% and the “% mRNA INHIBITION” value is on record as 58.0%.
